Experimental data from patent US20110118277A1, “METHOD OF TREATING LIVER DISEASE” (priority 2003, published 2011).

Legend:
[1] = system: Mouse hepatic oval cells (HOC); assay: Oval cell growth in culture (WST-8 cell number assay); format: cell-based; conditions: 48 hours; for effect on NE-induced oval cell proliferation: prazosin 10 μM; for effect on NE-induced oval cell proliferation / effect on ISO-induced oval cell proliferation: pertussis toxin 100 ng/ml, PD98059 20 μM, SB202190 10 μM; for effect on ISO-induced oval cell proliferation: propranolol 10 μM
Description: Mouse hepatic oval cells (HOC) (from Dr. Bryon Petersen, University of Florida College of Medicine, Gainesville, Fla.) were maintained in culture with Iscove's modified DMEM according to the protocol described in PNAS 99: 8078-8083, 2002. To confirm that the cells retained their oval cell phenotype in our hands, expression of the embryonic isoform of pyruvate kinase (M2-PK) was evaluated by immunocytochemistry and immunoblot.
Sub-confluent HOC were harvested by gentle trypsinisation and resuspended in serum-free Iscove's modified Dulbecco's minimal essential medium (DMEM), at a density of 5,000 cells/100 μl/well in 96-well plates. […] After 44 hours, cell numbers were assessed by a further 4 h incubation with WST-8 tetrazolium reagent (Dojindo Molecular Technologies, Gaithersburg, Md.) as described in J Clin Invest 106: 501-509, 2000. In viable cells, the tetrazolium salt is metabolized to a colorimetric dye and cell number is proportional to the signal intensity at 450 nm Therefore, this assay reliably detects treatment-induced changes in cell number.
Oval cells were cultured in serum free medium (SF), serum or serum plus increasing concentrations of NE (a) or ISO (c). After 48 hours, the numbers of cells in culture were evaluated. […] Cell numbers were determined after 48 hours.

oval cells = assay: Oval cell accumulation in Dbh-deficient mice fed MCD diet plus ethionine; format: in vivo, mouse; conditions: 4 weeks, ISO infused, FIG. 11
Description: Male Dbh* C57B 116 mice and their heterozygous littermates were generated and maintained as previously described in Cell 91: 583-592, 1997, and used at 30-40 weeks of age. Wild type C57B 116 mice were from Jackson Laboratory (Bar Harbor, Me.) Animals were allowed access to diets and water ad libitum. To induce oval cell expansion, mice were fed methionine choline deficient diets (ICN, Aurora, Ohio) supplemented with 0.15% Ethionine in the drinking water for 4 weeks. […]
Details of the staining procedures are as described in Am J Pathol 161: 521-530, 2002. […] Mouse monoclonal OV6 antibody and rat anti-cytokeratin 19 were detected using the DAKO Animal Research Kit, peroxidase (Dako, Denmark). The rabbit polyclonal antibody against 56 and 64 kiD human callus cytokeratins was detected by anti-rabbit Envision (Dako, Denmark) as described in J Pathol 199:191-200, 2003. […]
For each liver section, the number of oval cells in 5, randomly selected, non-overlapping, high power (×40 objective) fields was counted. […] Interlobular bile ducts were not considered progenitor cells and, thus not counted as such.
Dbh* and their control Dbh* littermates were fed methionine choline deficient (MCD) diets to induce oval cell expansion. […] Oval cell numbers were counted in 5 randomly selected fields/section from 4 mice/group. […]

| Molecule | effect on NE-induced oval cell proliferation [1] | effect on ISO-induced oval cell proliferation [1] | effect on proliferation of cultured oval cells ([1]; 5% serum) | also measured |
| --- | --- | --- | --- | --- |
| Oc1ccc(-c2nc(-c3ccncc3)c(-c3ccc(F)cc3)[nH]2)cc1 [SB202190] | tends to reduce the effect of NE and ISO, but this is not statistically significant | tends to reduce the effect of NE and ISO, but this is not statistically significant |  |  |
| pertussis toxin | significantly attenuated | significantly attenuated |  |  |
| CC(C)NCC(O)COc1cccc2ccccc12 (centres unmarked) [propranolol] |  | attenuated |  |  |
| NC[C@H](O)c1ccc(O)c(O)c1 [NE, norepinephrine] |  |  | significantly promote the proliferation of cultured oval cells | concentration of maximal proliferative effect ([1]; NE, 5% serum): 100 nM; concentration up to which the proliferative effect persists ([1]; NE, 5% serum): up to 100 μM |
| CC(C)NCC(O)c1ccc(O)c(O)c1 (centres unmarked) [ISO, isoprenaline] |  |  | promotes the proliferation of oval cells | hepatic oval cell accumulation in Dbh-deficient mice (oval cells): p<0.05 Dbh*+ISO versus Dbh*; concentration of peak proliferative activity (biphasic), first peak ([1]; ISO, 5% serum): 100 nM; concentration of peak proliferative activity (biphasic), second peak ([1]; ISO, 5% serum): 10 mM |
| COc1cccc(-c2cc(=O)c3ccccc3o2)c1N [PD98059] | significantly attenuated | significantly attenuated |  |  |
